For two molecules, Percentage remaining results are on record in article PMC11356571, “The Comparative Metabolism of a Novel Hepatocellular Carcinoma Therapeutic Agent, 2,3-Diamino-N-(4-(benzo[d]thiazol-2-yl)phenyl)propanamide, in Human and Animal Hepatocytes” (Metabolites, 2024).

Assay type in all cases: in vitro ADME
One series concerns the target T1, CYP2C19 (Homo sapiens, UniProt P33261).
T1 construct: purchased Cypex Ltd. (Dundee, UK)
As to the kind of experiment: Incubation with human cDNA-expressed CYP2C19. Particulars: CYP2C19, 30 min at 37 °C with NADPH; ETN101 10 μM or M1 1 μM. The protocol: (§1) ETN101 or M1 was incubated with nine human cDNA-expressed CYP enzymes (1A2, 2A6, 2B6, 2C8, 2C9, 2C19, 2D6, 2E1, and 3A4) to identify the CYPs involved in the metabolism of ETN101. Based on the preliminary study, the incubation conditions were determined as follows: Briefly, reaction mixtures of 50 μL containing ETN101 (final concentration: 10 μM) or M1 (final concentration: 1 μM), and CYPs (final amount: 5 pmol for CYP1A2, 2A6, 2C8, 2C9, 2C19, 2D6, and 3A4; 10 pmol for CYP2B6 and 2E1) were prepared in 0.1 M potassium phosphate buffer. The reaction was initiated by adding 50 μL of NADPH- regenerating system; the mixtures were incubated for 0 min or 30 min at 37 °C in triplicate. Reactions were terminated by the addition of 100 μL of ice-cold acetonitrile containing the IS (camptothecin, 200 ng/mL). Samples were centrifuged at 13,000 rpm for 5 min at 4 °C. An aliquot of 2 μL supernatant was injected in LC–MS/MS system.
(§2) For enzyme characterization, an Agilent 6460 triple quadrupole mass spectrometer coupled with a 1260 HPLC system (Agilent Technologies, Santa Clara, CA, USA) and a Kinetex Halo® C18 column (2.7 μm, 2.1 × 50 mm, Advanced Material Technology, Wilmington, DE, USA) were used for chromatographic separation. […] ETN101, M1, and M2 were detected via MRM using ESI in the positive mode. […]

In another series the target is T2, CYP2C9 (Homo sapiens, UniProt P11712).
T2 construct: purchased Corning Life Sciences (Woburn, MA, USA)
The series can be described thus: Incubation with human cDNA-expressed CYP2C9. The conditions noted are these: CYP2C9, 30 min at 37 °C with NADPH; ETN101 10 μM or M1 1 μM; diclofenac positive control. Here is the method:
The mobile phases comprised 0.1% (v/v) formic acid in water (mobile phase A) and 0.1% formic acid (v/v) in acetonitrile (mobile phase B). […] The column and auto-sampler were maintained at 40 °C and 4 °C, respectively. ETN101, M1, and M2 were detected via MRM using ESI in the positive mode. […] Mass Hunter software (Agilent Technologies) was used to control the LC-MS/MS instrument and for data processing.

Another series deals with T3, CYP2A6 (Homo sapiens, UniProt P11509).
T3 construct: purchased Corning Life Sciences (Woburn, MA, USA)
T3 sequence (P11509 1-494): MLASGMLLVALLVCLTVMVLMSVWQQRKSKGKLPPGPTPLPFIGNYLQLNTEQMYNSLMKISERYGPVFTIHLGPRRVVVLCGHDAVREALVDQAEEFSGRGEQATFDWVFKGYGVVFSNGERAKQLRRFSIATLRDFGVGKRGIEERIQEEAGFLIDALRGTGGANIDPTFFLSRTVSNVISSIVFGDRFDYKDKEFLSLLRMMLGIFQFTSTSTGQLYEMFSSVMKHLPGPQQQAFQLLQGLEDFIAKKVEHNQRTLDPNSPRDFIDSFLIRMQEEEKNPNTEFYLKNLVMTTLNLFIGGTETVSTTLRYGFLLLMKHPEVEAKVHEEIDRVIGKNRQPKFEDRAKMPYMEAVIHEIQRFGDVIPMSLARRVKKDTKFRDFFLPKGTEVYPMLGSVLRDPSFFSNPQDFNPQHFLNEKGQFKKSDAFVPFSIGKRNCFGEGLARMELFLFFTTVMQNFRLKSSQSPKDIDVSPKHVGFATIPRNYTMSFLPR
The series can be described thus: Incubation with human cDNA-expressed CYP2A6. The conditions noted are these: CYP2A6, 30 min at 37 °C with NADPH; ETN101 10 μM or M1 1 μM. The protocol:
as §1, §2

Another series has as its target T4, CYP2D6 (Homo sapiens, UniProt P10635).
T4 construct: purchased Corning Life Sciences (Woburn, MA, USA)
The series can be described thus: Incubation with human cDNA-expressed CYP2D6. Particulars: CYP2D6, 30 min at 37 °C with NADPH; ETN101 10 μM or M1 1 μM. Here is the method: as §1, §2

Molecules are shown by their SMILES.

T1 sequence (P33261 whole entry): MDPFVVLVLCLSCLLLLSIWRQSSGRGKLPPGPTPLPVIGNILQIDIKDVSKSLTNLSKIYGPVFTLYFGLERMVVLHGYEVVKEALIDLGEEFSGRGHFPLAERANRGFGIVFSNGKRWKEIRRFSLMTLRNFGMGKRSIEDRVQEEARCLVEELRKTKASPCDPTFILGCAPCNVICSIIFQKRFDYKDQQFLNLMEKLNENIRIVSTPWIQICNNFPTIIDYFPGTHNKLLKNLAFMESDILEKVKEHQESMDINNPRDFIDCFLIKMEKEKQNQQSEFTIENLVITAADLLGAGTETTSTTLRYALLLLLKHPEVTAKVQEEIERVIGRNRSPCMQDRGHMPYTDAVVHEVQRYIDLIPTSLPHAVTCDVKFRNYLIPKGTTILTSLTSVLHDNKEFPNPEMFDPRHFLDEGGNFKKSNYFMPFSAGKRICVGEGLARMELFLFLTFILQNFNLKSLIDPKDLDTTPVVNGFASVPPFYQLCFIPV
T2 sequence (P11712 whole entry): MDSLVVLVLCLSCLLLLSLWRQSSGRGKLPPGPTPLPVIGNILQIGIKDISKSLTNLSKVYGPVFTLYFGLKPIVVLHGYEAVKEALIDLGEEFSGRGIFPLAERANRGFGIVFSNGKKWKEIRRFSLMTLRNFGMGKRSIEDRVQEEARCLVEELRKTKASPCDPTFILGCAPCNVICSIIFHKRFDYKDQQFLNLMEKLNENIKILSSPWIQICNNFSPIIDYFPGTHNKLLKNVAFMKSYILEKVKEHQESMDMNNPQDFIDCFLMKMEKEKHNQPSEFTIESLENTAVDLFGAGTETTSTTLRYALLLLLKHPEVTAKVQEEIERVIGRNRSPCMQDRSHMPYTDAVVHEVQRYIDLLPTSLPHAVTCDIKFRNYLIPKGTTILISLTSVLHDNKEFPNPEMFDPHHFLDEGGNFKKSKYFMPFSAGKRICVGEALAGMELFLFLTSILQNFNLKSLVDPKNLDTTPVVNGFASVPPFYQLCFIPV
T4 sequence (P10635 whole entry): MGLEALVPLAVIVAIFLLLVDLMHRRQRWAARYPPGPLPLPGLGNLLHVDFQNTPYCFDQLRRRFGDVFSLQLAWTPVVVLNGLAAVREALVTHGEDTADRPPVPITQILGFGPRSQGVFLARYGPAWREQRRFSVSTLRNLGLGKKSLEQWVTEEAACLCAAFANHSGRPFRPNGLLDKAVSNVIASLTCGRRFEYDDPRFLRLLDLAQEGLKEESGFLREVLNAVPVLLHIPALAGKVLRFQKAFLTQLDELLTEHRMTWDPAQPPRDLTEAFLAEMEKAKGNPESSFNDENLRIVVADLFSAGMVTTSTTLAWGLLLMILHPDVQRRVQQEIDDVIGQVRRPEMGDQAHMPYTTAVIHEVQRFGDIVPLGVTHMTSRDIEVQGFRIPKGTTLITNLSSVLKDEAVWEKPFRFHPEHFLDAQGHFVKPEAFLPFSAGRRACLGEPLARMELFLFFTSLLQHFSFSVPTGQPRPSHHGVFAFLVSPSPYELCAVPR

Consider `NCC(N)C(=O)Nc1ccc(-c2nc3ccccc3s2)cc1` (centres unmarked) [ETN101, 2,3-diamino-N-(4-(benzo[d]thiazol-2-yl)phenyl)propanamide], for which the Percentage remaining is given as 113.0% at CYP2C19, 110.8% at CYP2C9, 115.6% on CYP2A6 and 86.9% at CYP2D6.
The matching figures for `Nc1ccc(-c2nc3ccccc3s2)cc1` [M1, 2-(4-aminophenyl)benzothiazole]: 68.7%, 80.1%, 105.9% and 83.0%.
